Test results reported in article PMC12112773, “Chemical Constituents and α-Glucosidase Inhibitory Activities of the Leaves of Embelia parviflora—In Vitro and In Silico Studies” (Life, 2025).
Like-named read-outs stand apart in the source and are kept apart here.

Columns and labels:
[1] = target: α-glucosidase; settings: cited from earlier work
[2] = target: T1, α-glucosidase from Saccharomyces cerevisiae (Saccharomyces cerevisiae, UniProt P53341); assay: in vitro assay of α-glucosidase enzyme inhibition (p-nitrophenyl α-D-glucopyranoside substrate); format: biochemical
T1 construct: purchased Sigma Aldrich (St. Louis, MO, USA)
Protocol: Enzyme α-glucosidase from Saccharomyces cerevisiae (E.C. 232-604-7) and p-nitrophenyl-α-D-glucopyranoside were purchased from Sigma Aldrich (St. Louis, MO, USA).
The in vitro assay of α-glucosidase enzyme inhibition of the E. parviflora MeOH extract and tested compounds was conducted following the methodology outlined in our earlier study [38]. Briefly, solutions of MeOH extract and isolated compounds at 256 μg/mL, 64 μg/mL, 16 μg/mL, 4 μg/mL, and 1 μg/mL concentrations were prepared using DMSO (Merck). The compound solution (2 μL) and 0.2 U/mL α-glucosidase enzyme solution (25 µL) in 120 µL phosphate buffer were mixed. After 5 min preincubation, a solution of 2.5 mM p-nitrophenyl α-D-glucopyranoside (25 µL) prepared in phosphate buffer was added. The reaction mixture was incubated at 37 °C for 30 min and was stopped by adding 0.2 M of Na2CO3 (100 µL). Enzymatic activity (the absorbance of the released p-nitrophenol) was quantified by measuring at 410 nm using a Biotek reader. The % inhibition was calculated using the following equation:Inhibition (%) = [1 − (Asample/Acontrol)] × 100
The biological experiments were performed in triplicate. The IC50 values are presented as the mean ± standard deviation (S.D) using the program Statistica 10.

[3] = mean ± S.D, triplicate, 37 °C, 30 min, read-out: α-Glucosidase inhibitory activity IC50

T1 sequence (P53341 whole entry): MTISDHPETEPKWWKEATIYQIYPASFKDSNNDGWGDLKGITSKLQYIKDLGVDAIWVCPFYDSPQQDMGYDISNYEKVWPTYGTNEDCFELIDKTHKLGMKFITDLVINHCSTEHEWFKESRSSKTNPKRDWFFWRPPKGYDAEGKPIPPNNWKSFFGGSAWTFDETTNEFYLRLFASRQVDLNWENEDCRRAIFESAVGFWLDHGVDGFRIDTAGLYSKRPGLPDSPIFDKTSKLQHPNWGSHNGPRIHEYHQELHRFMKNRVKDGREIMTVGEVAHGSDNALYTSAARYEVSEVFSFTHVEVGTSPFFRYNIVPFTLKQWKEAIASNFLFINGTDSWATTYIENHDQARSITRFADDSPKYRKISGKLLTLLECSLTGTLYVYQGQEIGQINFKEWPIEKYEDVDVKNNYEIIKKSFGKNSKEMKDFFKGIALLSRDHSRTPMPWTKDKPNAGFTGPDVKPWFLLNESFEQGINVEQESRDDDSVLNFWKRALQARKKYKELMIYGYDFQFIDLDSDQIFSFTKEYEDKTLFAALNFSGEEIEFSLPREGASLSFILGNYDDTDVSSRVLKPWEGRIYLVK

## CC[C@H](CC[C@@H](C)[C@H]1CC[C@H]2[C@@H]3CC=C4C[C@@H](O)CC[C@]4(C)[C@H]3CC[C@]12C)C(C)C [Compound 1, β-sistosterol]
[1]
  anti-α-glucosidase activity IC50: 283.67 µg/mL
[2]; [3]
  IC50: > 617 µM

## CC[C@H](CC[C@@H](C)[C@H]1CC[C@H]2[C@@H]3CC=C4C[C@@H](O[C@@H]5O[C@H](CO)[C@@H](O)[C@H](O)[C@H]5O)CC[C@]4(C)[C@H]3CC[C@]12C)C(C)C [Compound 2, daucosterol]
[1]
  anti-α-glucosidase activity IC50: 247.35 µg/mL
[2]; [3]
  IC50: > 444 µM

## CCCCCCCCCCCCCCCC(=O)OC[C@H]1O[C@@H](O[C@H]2CC[C@@]3(C)C(=CCC4C3CC[C@@]3(C)C4CC[C@@H]3[C@H](C)/C=C/[C@@H](CC)C(C)C)C2)[C@H](O)[C@@H](O)[C@@H]1O (stereo partly drawn) [Compound 3, 3-O-(6′-O-palmitoyl)-β-D-glucopyranosyl stigmasterol]
[2]; [3]
  IC50: > 315 µM

## C[C@H]1[C@H](C)CC[C@]2(C(=O)O)CC[C@]3(C)C(=CC[C@@H]4[C@@]5(C)CC[C@H](O)C(C)(C)[C@@H]5CC[C@]43C)[C@H]12 [Compound 4, ursolic acid]
[1]
  manner of inhibition: non-competitive
[2]
  IC50: 3.07 µM

## C[C@@H]1O[C@@H](Oc2c(-c3ccc(O)c(O)c3)oc3cc(O)cc(O)c3c2=O)[C@H](O)[C@H](O)[C@H]1O [Compound 7, quercitrin]
[1]; Dang's group, read-out: α-glucosidase inhibitory activity IC50
  IC50: 26.5 µM
[2]
  IC50: 375 µM

## CC1OC(Oc2c(-c3ccc(O)c(OC4OC(CO)C(O)C(O)C4O)c3)oc3cc(O)cc(O)c3c2=O)C(O)C(O)C1O (stereo not drawn) [Compound 8, quercetin-3-rhamnoside-3′-glucoside]
[2]; [3]
  IC50: > 419 µM

## CC1=CC(=O)CC(C)(C)[C@H]1/C=C/[C@@H](C)O [Compound 9, (6R,9R)-9-hydroxy-4,7-megastigmadien-3-one]
[2]; [3]
  IC50: > 1230 µM

## CC(=O)C=C=C1C(C)(C)C[C@H](O)C[C@]1(C)O [Compound 10, grasshopper ketone]
[2]; [3]
  IC50: > 1140 µM

## CC1=CC(=O)CC(C)(C)[C@H]1/C=C/[C@@H](C)O[C@@H]1O[C@H](CO[C@@H]2OC[C@](O)(CO)[C@H]2O)[C@@H](O)[C@H](O)[C@H]1O [Compound 11, (6R,7E,9R)-9-hydroxy-4,7-megastigmadien-3-one-9-O-β-D-apiofuranosyl(1->6)-β-D-glucopyranoside]
[2]; [3]
  IC50: > 509 µM

## CC1=CC(=O)CC(C)(C)[C@@]1(O)/C=C/[C@@H](C)O [Compound 12, vomifoliol]
[1]
  α-glucosidase inhibitory activity (in words): inactive
[2]
  IC50: > 1140 µM

## COC(=O)/C=C/c1ccc(O)cc1 [Compound 13, methyl trans-p-coumarate]
[1]; read-out: inhibition of α-glucosidase IC50
  IC50: 54.1 µM
[2]; [3]
  IC50: > 1440 µM

## CC1=C(O)C(=O)OC1C (stereo not drawn) [Compound 16, sotolone]
[2]; [3]
  IC50: > 2000 µM
